Patent publication US9056923B2, “Mimetic peptides derived from collagen type IV and their use for treating angiogenesis- and lymphagiogenesis-dependent diseases” (THE JOHNS HOPKINS UNIVERSITY, priority 2010, dated 2015)
Square brackets hold non-standard residues; d marks the D form. Ends that are not written are not given here. Peptide text beside a SMILES is read from it. Nle = CCCC[C@H](N)C(=O)O; Abu = CC[C@H](N)C(=O)O

Experiments:
Assay type in all cases: cell-based, human
[1] = tested on: HUVEC; conditions: for inhibition of proliferation / Activity in Proliferation / Proliferation Inhibition (IC50 in uM): HUVEC; for Activity in Proliferation: Yes/No summary; for Proliferation Inhibition (IC50 in uM): summary tables 2-4, 6, 7
Protocol: Several assays were used to test the peptides discussed in the Examples herein. A colorimetric based proliferation assay using WST-1 (Roche, 11644807001) proliferation reagent was carried out using HUVEC cells. 2000 cells/well were plated in 96-well plates and allowed to adhere overnight. On the following day, the media was exchanged with fully supplemented media containing peptides or equivalent DMSO vehicle for the controls. Three days later the media containing the peptides was replaced with serum-free EBM-2 media containing WST-1 reagent and the plates were incubated for four hours as per the manufacturer's recommendations. Changes in color, due to the formazan dye resulted from the cleavage of the tetrazolium salt WST-1 by the mitochondrial succinate-tetrazolium reductase, were read on a Victor V fluorescence plate reader (Perkin Elmer, MA) by measuring the absorbance at 450 nm Dose response curves of percent live cells (in comparison to untreated cells but incubated in complete media with 0.2% DMSO) were created. Assays were performed in at least two independent replicates and each replicate was performed using three experimental triplicates.

[2] = tested on: HUVEC; experiment: HUVEC migration assay (RT-CIM); conditions: for Migration Inhibition (50 uM): 50 uM peptide; for Activity in Migration: Yes/No summary, active = inhibitory potential greater than 30%; for Migration Inhibition (5 uM): 5 uM peptide; for inhibition of migration / migration inhibition: concentration not given
Protocol: The inhibitory potential of the peptides was measured using a real time migration assay system based on electrical impedance (RT-CIM, ACEA Biosciences, CA). CIM 16 well plates (Roche, 05665817001) are composed of a top and bottom chamber separated by a microporous (8 μm) polycarbonate membrane. The membrane was coated with fibronectin (20 μg/mL), and 45,000 cells/well in serum free media with or without peptides were added to the top compartment. Media with chemoattractant (i.e., fully supplemented EBM-2) was added to the bottom compartment of the chamber and the plate was incubated at 37° C. for 20 hours. The sensors integrated on the bottom side of the membrane monitor and continuously record changes in impedance as the cells move through the membrane. The RT-CIM technology allows for easy quantification of cell migration by monitoring the cell index derived from the measured impedances. Assays were performed in at least two independent replicates and each replicate was performed using two experimental duplicates.

[3] = tested on: HUVEC; conditions: HUVEC; for Adhesion Inhibition (100 uM): 100 uM peptide; for Activity in Adhesion: Yes/No summary, active = inhibitory potential greater than 30%
Protocol: Similar to the migration assays, the inhibition activity of the peptide in cellular adhesion was assessed using the RT-CIM technology. In this case, 25,000 cells/well were plated in 16 wells E-plates (Roche, Basel Switzerland) in the presence or absence of the peptide. The adhesion was monitored over time (3 hours) by measuring changes in the electrical impedance, which is a direct measure of the cells adhering on the electrodes. […] Assays were performed in at least two independent replicates and each replicate was performed using two experimental duplicates.

[4] = tested on: HUVEC; experiment: HUVEC tube formation assay on Matrigel; conditions: for Tube formation Inhibition (100 uM): 100 uM peptide; for Activity in Tube formation: Yes/No summary; for inhibition of tube formation: concentration not given
Protocol: The compounds also were tested for their ability to inhibit tube formation, a process critical in angiogenesis. Endothelial cells spontaneously form a network of tubes when plated on extracts of extracellular matrix. This in vitro assay combines aspects of adhesion and migration and it is routinely used in angiogenesis research (Oliveira-Ferrer et al., 2008). The ability to inhibit tube formation is a comprehensive assessment of the anti-angiogenic potential. The protocol was described by Arnaoutova et al. (2009) and it consists of plating HUVEC on top of basement membrane extract and after incubation at 37° C. the cells naturally rearrange themselves in a network of tubes. Thus, 50 μL/well of Matrigel (BD Biosciences, San Jose, Calif.) was plated in a cold 96 well plate and incubated at 37° C. for 30 min for polymerization. 15,000 cells/well were added to the top of the gel and incubated in complete media in the presence or absence of peptide for 19 hours. Images were captured using the CCD Sensicam mounted on a Nikon microscope (Eclipse T-100). Assays were performed in at least two independent replicates and each replicate was performed using three experimental replicates and one image of a randomly chosen field was acquired per well.

Row | Compound | inhibition of proliferation [1] | Activity in Proliferation [1] | Migration Inhibition (50 uM) [2] | Activity in Migration [2] | Adhesion Inhibition (100 uM) [3] [%] | Activity in Adhesion [3] | Tube formation Inhibition (100 uM) [4] | Activity in Tube formation [4] | inhibition of tube formation [4] | Migration Inhibition (5 uM) [2] [%] | Proliferation Inhibition (IC50 in uM) [1] | inhibition of migration [2] | inhibition of adhesion ([3]; concentration not given) | migration inhibition [2] [%] | adhesion inhibition (FIG. 16) ([3]; concentration not given) | IC50 [1] [µM] | inhibition of adhesion at 50 μM ([3]; 50 μM peptide) | inhibition of tube formation (FIG. 20) ([4]; high dose, 100 nM)
1 | LRRFSTMPFMFTNINN-NH2 [SP2032, LRRFSTMPFMFTNINN] | potent activity in inhibiting proliferation | Yes | 32.45% | Yes | 63 | Yes | Complete | Yes | Inhibition of tube formation | – | – | – | – | – | – | – | – | –
2 | LRRFSTMPFMFVNINNVVNF-NH2 [SP2027] | not affected | Yes | – | Yes | 96.75 | Yes | Complete | Yes | – | 27.02 | – | – | – | – | – | – | – | –
3 | LRRFSTMP-NH2 [SP2008] | – | No | Inactive | No | −0.1 | No | Inactive | No | – | – | Inactive | absence of activity | absence of activity | – | – | – | – | –
4 | CC[C@H](NC(=O)[C@H](Cc1ccccc1)NC(=O)[C@H](CCSC)NC(=O)[C@H](Cc1ccccc1)NC(=O)[C@@H]1CCCN1C(=O)[C@H](CCSC)NC(=O)[C@@H](NC(=O)[C@H](CO)NC(=O)[C@H](Cc1ccccc1)NC(=O)[C@H](CCCNC(=N)N)NC(=O)[C@H](CCCNC(=N)N)NC(=O)[C@@H](N)CC(C)C)[C@@H](C)O)C(N)=O [SP2007, LRRFSTMPFMFAbu] (H-LRRFSTMPFMF[Abu]-NH2; N-terminus assumed) | – | No | Inactive | No | 11 | No | Inactive | No | – | – | Inactive | absence of activity | absence of activity | – | – | – | – | –
5 | LRRFSTMPFMFSNINNVSNF-NH2 [SP2022] | not affected | Yes | – | Yes | 96.49 | Yes | – | Yes | – | – | – | – | – | – | – | – | – | –
6 | FTNINNVTN-NH2 [SP2031, FTNINNVTN] | restored activity | Yes | 10.21% | Yes | 85 | Yes | Active | Yes | – | – | – | – | – | > 50 | > 80 | – | – | –
7 | LRRFSTMPFMFANINNVANF-NH2 [SP2023] | – | Yes | – | Yes | 96.29 | Yes | Complete | Yes | – | 31.18 | – | – | – | – | – | – | – | –
8 | LRRFSTMPFMFTNINNVTNF-NH2 [SP2025] | not affected | Yes | – | Yes | 96.48 | Yes | Complete | Yes | – | 18.19 | – | – | – | – | – | – | – | –
9 | LRRFSTMPFMF [SP2004, LRRFSTMPFMF] | inactive | No | – | No | – | No | Inactive | No | – | – | Inactive | – | – | – | – | > 100 | – | –
10 | CC[C@H](NC(=O)[C@H](Cc1ccccc1)NC(=O)[C@H](CCSC)NC(=O)[C@H](Cc1ccccc1)NC(=O)[C@@H]1CCCN1C(=O)[C@H](CCSC)NC(=O)[C@@H](NC(=O)[C@H](CO)NC(=O)[C@H](Cc1ccccc1)NC(=O)[C@H](CCCNC(=N)N)NC(=O)[C@H](CCCNC(=N)N)NC(=O)[C@@H](N)CC(C)C)[C@@H](C)O)C(=O)N[C@@H](CC(N)=O)C(=O)N[C@H](C(=O)N[C@@H](CC(N)=O)C(=O)N[C@@H](CC(N)=O)C(N)=O)[C@@H](C)CC [SP2028, LRRFSTMPFMFAbuNINN] (H-LRRFSTMPFMF[Abu]NINN-NH2; N-terminus assumed) | – | Yes | 48.87% | Yes | 96.8 | Yes | Complete | Yes | Inhibition of tube formation | – | – | – | – | – | – | – | – | –
11 | LRRFSTMPFMFININN-NH2 [SP2033, LRRFSTMPFMFININN] | potent activity in inhibiting proliferation | Yes | 42.01% | Yes | 94 | Yes | Complete | Yes | Inhibition of tube formation | – | – | – | – | – | – | – | – | –
12 | CC[C@H](NC(=O)[C@H](Cc1ccccc1)NC(=O)[C@H](CCSC)NC(=O)[C@H](Cc1ccccc1)NC(=O)[C@@H]1CCCN1C(=O)[C@H](CCSC)NC(=O)[C@@H](NC(=O)[C@H](CO)NC(=O)[C@H](Cc1ccccc1)NC(=O)[C@H](CCCNC(=N)N)NC(=O)[C@H](CCCNC(=N)N)NC(=O)[C@@H](N)CC(C)C)[C@@H](C)O)C(=O)N[C@@H](CC(N)=O)C(=O)N[C@H](C(=O)N[C@@H](CC(N)=O)C(=O)N[C@H](C(=O)O)C(C)C)[C@@H](C)CC [SP2006, LRRFSTMPFMFAbuNINV] (H-LRRFSTMPFMF[Abu]NINV-OH; N-terminus and C-terminus assumed) | did not inhibit proliferation | No | – | No | – | Yes | Complete | Yes | Inhibition of tube formation | – | – | – | – | 18 | – | – | inhibition of adhesion | active at inhibiting tube formation
13 | CCCC[C@H](NC(=O)[C@H](Cc1ccccc1)NC(=O)[C@@H]1CCCN1C(=O)[C@H](CCCC)NC(=O)[C@@H](NC(=O)[C@H](CO)NC(=O)[C@H](Cc1ccccc1)NC(=O)[C@H](CCCNC(=N)N)NC(=O)[C@H](CCCNC(=N)N)NC(=O)[C@@H](N)CC(C)C)[C@@H](C)O)C(=O)N[C@@H](Cc1ccccc1)C(=O)O [SP2014, LRRFSTNlePFNleF-OH] (H-LRRFST[Nle]PF[Nle]F-OH; N-terminus assumed) | – | No | Inactive | No | 2.9 | No | Inactive | No | – | – | Inactive | absence of activity | absence of activity | – | – | > 100 | – | –
